Source: patent US11078189B2, “Pharmaceutical compounds” (REVIRAL LIMITED, priority 2017, dated 2021)

Assays:
[1] = system: MDR1; test: in vitro; type: in vitro ADME; settings: dog, MDCK-MDR1
Protocol: MDR1-MDCK cells obtained from the NIH (Rockville, Md., USA) are used between passage numbers 6-30. Cells are seeded onto Millipore Multiscreen Transwell plates at 3.4×10^5 cells/cm^2. The cells are cultured in DMEM and media is changed on day 3. On day 4 the permeability study is performed. Cell culture and assay incubations are carried out at 37° C. in an atmosphere of 5% CO2 with a relative humidity of 95%. On the day of the assay, the monolayers are prepared by rinsing both basolateral and apical surfaces twice with Hanks Balanced Salt Solution (HBSS) at the desired pH warmed to 37° C. Cells are then incubated with HBSS at the desired pH in both apical and basolateral compartments for 40 min to stabilise physiological parameters.
The dosing solutions are prepared by diluting test compound with assay buffer to give a final test compound concentration of 10 μM (final DMSO concentration of 1% v/v). The fluorescent integrity marker lucifer yellow is also included in the dosing solution. Analytical standards are prepared from test compound DMSO dilutions and transferred to buffer, maintaining a 1% v/v DMSO concentration.
For assessment of A-B permeability, HBSS is removed from the apical compartment and replaced with test compound dosing solution. The apical compartment insert is then placed into a companion plate containing fresh buffer (containing 1% v/v DMSO). For assessment of B-A permeability, FIBSS is removed from the companion plate and replaced with test compound dosing solution. Fresh buffer (containing 1% v/v DMSO) is added to the apical compartment insert, which is then placed into the companion plate. At 60 min the apical compartment inserts and the companion plates are separated and apical and basolateral samples diluted for analysis. Test compound permeability is assessed in duplicate. Compounds of known permeability characteristics are run as controls on each assay plate.
Test and control compounds are quantified by LC-MSMIS cassette analysis using an 8-point calibration with appropriate dilution of the samples. The starting concentration (C0) is determined from the dosing solution and the experimental recovery calculated from C0 and both apical and basolateral compartment concentrations. The integrity of the monolayer throughout the experiment is checked by monitoring lucifer yellow permeation using fluorimetric analysis. Lucifer yellow permeation is high if monolayers have been damaged.

[2] = Liver microsomal stability, rat; type: in vitro ADME; settings: pooled liver microsomes, pH 7.4; rat liver microsomes 0.5 mg/mL; 3 μM compound; read-out: Liver Microsoinal Stability t1/2, rat
Protocol: (§1) Pooled liver microsomes are purchased from a reputable commercial supplier and stored at −80° C. prior to use. Microsomes (final protein concentration 0.5 mg/mL), 0.1 M phosphate buffer pH 7.4 and test compound (final substrate concentration 3 μM; final DMSO concentration 0.25%) are pre-incubated at 37° C. prior to the addition of NADPH (final concentration 1 mM) to initiate the reaction. The final incubation volume is 50 uL. A control incubation is included for each compound tested where 0.1 M phosphate buffer pH 7.4 is added instead of NADPH (minus NADPH). Two control compounds are included with each species. All incubations are performed singularly for each test compound. Each compound is incubated for 0, 5, 15, 30 and 45 min. The control (minus NADPH) is incubated for 45 min only. The reactions are stopped by transferring 20 μL of incubate to 60 μL MeOH at the appropriate time points. The termination plates are centrifuged at 2,500 rpm for 20 min at 4° C. to precipitate the protein. Following protein precipitation, the sample supernatants are combined in cassettes of up to 4 compounds, internal standard is added and samples analysed by LC-MS/MS. From a plot of In peak area ratio (compound peak area/internal standard peak area) against time, the gradient of the line is determined. Subsequently, half-life and intrinsic clearance are calculated.

[3] = system: RSV A2 VR-1540; test: RSV plaque reduction assay; type: cell-based; settings: human respiratory syncytial virus; Strain A2; n = 1; HEp-2 cells
Protocol: HEp-2 cells (ATCC, CCL23) were passaged in flasks and seeded in 96-well plates in DMEM containing antibiotics and supplemented with 10% FBS. During inoculation and subsequent incubation, cells were cultured in DMEM containing 3% FBS. 100 plaque forming unit (PFU)/well of RSV (RSV A2 VR-1540) was mixed with ten serial dilutions of compound. Subsequently, 100 μL of the virus/compound mixtures was added to confluent HEp-2 cell monolayers. The cells and virus/compound mixtures were incubated at 35° C. in a humidified 5% CO2 incubator for 1 day.
Cells were washed twice with PBS before adding 50% v/v EtOH/MeOH, and then stored at −20° C. On the day of the staining, fixative was first removed from the plates. Plates were washed 3× with PBS. A pre-titrated amount of the primary antibody was added in 60 μL PBS/2% milk powder, and plates incubated for 1 h at […]. The plates were washed 3× with PBS/0.05% Tween20 before addition of goat anti-mouse horse radish peroxidase in 60 μL PBS/2% milk powder, and incubated for 1 h at rt. Following three wash steps with PBS/0.05% Tween20, 60 μL ready-to-use TrueBlue was added and plates were incubated at rt for 10-15 min before adding MilliQ water. Plates were washed once with water, incubated for 30-60 min and after removal of water, air-dried in the dark.
Plates were scanned and analyzed using the Immunospot S6 UV analyzer, which is equipped with BioSpot analysis software for counting immunostained plaques (virospots). Plaque counts were used to calculate % infection relative to the mean of the spot count (SC) in the virus control wells for RSV. IC50/IC90 values were calculated as 50% or 90% reduction in signal, respectively, by interpolation of inhibition curves fitted with a 4-parameter nonlinear regression with a variable slope in GraphPad 5.0 (Prism).

[4] = Liver microsomal stability, human; type: in vitro ADME; settings: pooled liver microsomes, pH 7.4; human liver microsomes 0.5 mg/mL; 3 μM compound; read-out: Liver Microsoinal Stability t1/2, human
Protocol: as §1

In the case of `CCS(=O)(=O)N1CCC(n2c(CN3C(=O)C4(CC4)c4ccc(F)cc43)nc3cc(Cl)ccc32)CC1` [Compound 35, 1′-({5-Chloro-1-[1-(ethanesulfonyl)piperidin-4-yl]-1H-1,3-benzodiazol-2-yl}methyl)-6′-fluoro-1′,2′-dihydrospiro[cyclopropane-1,3′-indole]-2′-one], the Papp A→B at 60 min, 10 μM [1] is reported as 12.7 ×10⁻⁶ cm/s, the Papp B→A at 60 min, 10 μM [1] is reported as 22.8 ×10⁻⁶ cm/s and the half-life at 3 μM [2] is reported as 5.5 min. It also gave an IC50 [3] of 0.87 nM, an IC90 [3] of 5.2 nM and a half-life at 3 μM [4] of 34.6 min.
`CS(=O)(=O)N1CCC(n2c(CN3C(=O)C4(CC4)c4ccc(F)cc43)nc3cc(Cl)ccc32)CC1` [Compound 33, 1′-{[5-Chloro-1-(1-methanesulfonylpiperidin-4-yl)-1H-1,3-benzodiazol-2-yl]methyl}-6′-fluoro-1′,2′-dihydrospiro[cyclopropane-1,3′-indole]-2′-one] gave a Papp A→B at 60 min, 10 μM [1] of 12.4 ×10⁻⁶ cm/s, a Papp B→A at 60 min, 10 μM [1] of 35.5 ×10⁻⁶ cm/s and a half-life at 3 μM [2] of 14.8 min. For the same molecule, the IC50 [3] was 0.49 nM, the IC90 [3] was 4.4 nM and the half-life at 3 μM [4] was 486 min.
